Measurements reported in BindingDB's records for doi:10.7270/Q2NV9GNV (Vanderbilt Screening Center for GPCRs, Ion Channels and …, 2009).

Biological target: T1, Muscarinic acetylcholine receptor M4 (Rattus norvegicus, UniProt P08485)
T1 sequence (P08485 whole entry): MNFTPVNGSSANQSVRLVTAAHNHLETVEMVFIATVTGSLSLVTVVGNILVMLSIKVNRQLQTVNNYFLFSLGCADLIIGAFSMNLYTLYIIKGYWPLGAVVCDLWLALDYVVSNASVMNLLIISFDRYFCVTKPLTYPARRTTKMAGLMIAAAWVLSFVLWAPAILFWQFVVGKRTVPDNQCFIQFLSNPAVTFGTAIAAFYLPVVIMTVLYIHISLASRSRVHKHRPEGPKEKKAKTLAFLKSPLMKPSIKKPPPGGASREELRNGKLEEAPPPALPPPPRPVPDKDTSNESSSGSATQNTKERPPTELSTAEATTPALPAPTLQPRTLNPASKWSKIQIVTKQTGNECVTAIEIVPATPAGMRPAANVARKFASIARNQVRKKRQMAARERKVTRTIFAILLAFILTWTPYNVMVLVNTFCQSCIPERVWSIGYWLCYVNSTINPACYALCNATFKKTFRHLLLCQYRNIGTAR
Assay: effects on NMS binding at M4, late-stage follow-up, mechanism study for M4 PAM project, biochemical, NMS competition, rat M4 (AID 1939)
Details: inactive by the depositor's call

## Cc1cc(C)c2c(N)c(C(=O)NCc3ccc4c(c3)OCO4)sc2n1 [3-amino-4,6-dimethyl-N-piperonyl-thieno[2,3-b]pyridine-2-carboxamide]
  Ki: 46.8 nM
